Assay results reported in patent US20060241108A1, “Substituted phenoxazines and acridones as inhibitors of AKT” (St. Jude Children's Research Hospital, priority 2005, published 2006).

Legend:
[1] = molecular target: T1, recombinant, full length AKT1/PKBα (Homo sapiens, UniProt P31749); test: In vitro inhibition of recombinant AKT (GSK-3 fusion protein phosphorylation); type: biochemical; details: 5 μM, pre-incubated two hours on ice
T1 construct: active, recombinant, full length AKT1/PKBα protein; purchased Upstate Biotechnology, Lake Placid, N.Y
Protocol: In vitro inhibition of recombinant AKT. In vitro kinase assays can be performed using an active, recombinant, full length AKT1/PKBα protein (available from Upstate Biotechnology, Lake Placid, N.Y.) or with an active, recombinant AKT1/PKBα protein, referred to herein as AKT1ΔPH, that lacks the pleckstrin homology domain (also available from Upstate Biotechnology). 10 ng of the recombinant enzyme in 25 μl 1× kinase buffer (25 mM Tris, pH 7.5; 5 mM β-glycerol phosphate; 2 mM dithiothreitol; 0.1 mM Na3VO4; and 10 mM MgCl2) is mixed with 2.5 μl of DMSO and a test compound (5 μM). […] After incubating the suspensions at 30° C. for 30 minutes, the reaction can be terminated by the addition of 3×SDS sample buffer (187.5 mM Tris-HCl, pH 6.8; 6% SDS; 30% glycerol; 150 mM dithiothreitol; and 0.03% bromophenol blue). The samples are then boiled for five minutes. The proteins can be separated on a 12% SDS polyacrylamide gel, and subsequently transferred to a nitrocellulose membrane. The membranes are preferably incubated with rabbit polyclonal anti-phospho-GSK-3α/β (Ser21/9) antibody (available from Cell Signaling Technology, Beverly, Mass., catalog # 9331).
The phosphorylation status of GSK-3 protein can also be used to study the AKT inhibitory activity of phenoxazines (including the phenoxazine compounds listed in Table I above) and acridone compounds. […]

[2] = system: endogenous AKT; test: Cellular AKT kinase activity: AKT immunoprecipitated from treated Rh1 cells phosphorylates GSK-3 fusion protein; type: cell-based, human; details: 5 μM, 1 hour, IGF-I 10 minutes
Protocol: Determination of cellular AKT kinase activity. AKT kinase activity can be quantitated using a commercial assay kit (available from Cell Signaling Technology, Beverly, Mass.) according to the manufacturer's instructions. Specifically, Rh1 cells are seeded in serum-free medium at a density of 4×10^6 per 10-cm plate. […] Cells are then stimulated with ±IGF-I ([…]) for 10 minutes and washed once with ice-cold PBS. Cells are lysed in 200 μl of ice-cold 1× lysis buffer (20 mM Tris, pH 7.5; 150 mM NaCl; 1 mM EDTA; 1 mM EGTA; 1% Triton X-100; 2.5 mM sodium pyrophosphate; 1 mM β-glycerol phosphate; 1 mM Na3VO4; 1 mM phenylmethylsulfonyl fluoride; and 1 mM leupeptin) and incubated for 10 minutes on ice. The cell lysates are then centrifuged for 10 minutes at 17,500×g at 4° C. Volumes of the supernatants are preferably adjusted so that each sample contains an equal amount of protein (150 μg). The supernatants are then incubated with immobilized (cross-linked) anti-AKT antibody (Cell Signaling Technology, Beverly, Mass., catalog # 9279) for 3 hours at 4° C. […]
To determine directly whether compounds, such as the phenoxazine compounds in Table I, inhibit AKT activation in cells, the activation of AKT by IGF-I can be evaluated by assessing either phosphorylation of AKT (Ser473), or the in vitro kinase activity of protein immunoprecipitated by anti-AKT antibody. […]

T1 sequence (P31749 whole entry, the tested form may be a part): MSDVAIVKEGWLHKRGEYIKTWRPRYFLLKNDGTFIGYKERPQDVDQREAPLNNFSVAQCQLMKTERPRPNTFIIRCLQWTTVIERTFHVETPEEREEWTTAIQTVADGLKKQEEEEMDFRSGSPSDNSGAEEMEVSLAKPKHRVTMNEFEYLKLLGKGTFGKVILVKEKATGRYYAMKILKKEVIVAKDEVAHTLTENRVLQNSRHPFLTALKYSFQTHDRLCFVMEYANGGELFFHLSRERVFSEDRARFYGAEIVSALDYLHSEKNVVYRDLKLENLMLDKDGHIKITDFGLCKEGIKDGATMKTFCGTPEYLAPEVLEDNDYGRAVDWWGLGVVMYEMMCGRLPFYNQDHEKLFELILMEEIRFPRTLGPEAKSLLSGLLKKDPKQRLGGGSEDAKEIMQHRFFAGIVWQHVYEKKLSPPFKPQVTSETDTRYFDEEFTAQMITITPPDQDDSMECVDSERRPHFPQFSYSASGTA

Compound | inhibition of GSK-3 phosphorylation by recombinant AKT [1] | phosphorylation of GSK-3 fusion protein by AKT immunoprecipitated from treated cells [2]
10-[4′-[(β-hydroxyethyl)piperazino]butyl]-2-chlorophenoxazine [Compound 15B] | completely blocked | completely inhibited
CCN(CC)CCCCN1c2ccccc2Oc2ccc(Cl)cc21 [Compound 10B, 10-[4′-(N-diethylamino)butyl]-2-chlorophenoxazine] | at least nearly complete | completely inhibited
